Results: PubChem BioAssay AID651867 (The Scripps Research Institute Molecular Screening Center, 2012)

Target: Protein-arginine deiminase type-4 (Homo sapiens) (UniProt Q9UM07)
Assay: PubChem AID 651867
Conditions: recombinant PAD4, BAEE citrulline colorimetric, time-dependent inactivation; at 10 µM; hits give high values

Sequence of Protein-arginine deiminase type-4 (Homo sapiens) (Q9UM07 whole entry, looked up): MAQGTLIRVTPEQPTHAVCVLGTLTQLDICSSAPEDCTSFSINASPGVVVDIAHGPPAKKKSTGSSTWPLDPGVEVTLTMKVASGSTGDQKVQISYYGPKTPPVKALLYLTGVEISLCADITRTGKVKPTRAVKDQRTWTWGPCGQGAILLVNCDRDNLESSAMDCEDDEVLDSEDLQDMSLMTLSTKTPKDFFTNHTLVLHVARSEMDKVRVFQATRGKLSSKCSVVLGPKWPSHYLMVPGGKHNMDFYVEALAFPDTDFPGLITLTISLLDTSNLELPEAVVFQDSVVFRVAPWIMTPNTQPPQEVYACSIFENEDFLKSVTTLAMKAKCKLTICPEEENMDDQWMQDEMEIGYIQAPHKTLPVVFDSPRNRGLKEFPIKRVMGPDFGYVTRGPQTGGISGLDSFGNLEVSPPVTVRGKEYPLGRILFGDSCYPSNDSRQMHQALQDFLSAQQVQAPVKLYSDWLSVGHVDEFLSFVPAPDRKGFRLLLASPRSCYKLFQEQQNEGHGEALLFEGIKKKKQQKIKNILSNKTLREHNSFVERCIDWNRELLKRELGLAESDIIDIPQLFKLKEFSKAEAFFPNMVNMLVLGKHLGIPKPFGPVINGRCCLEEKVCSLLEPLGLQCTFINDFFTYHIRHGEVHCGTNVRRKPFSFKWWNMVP

`NC1=CC(=O)c2ccc(-c3cccc(C(=O)O)n3)nc2C1=O` showed a kinact/KI of 88.3 M⁻¹ s⁻¹.
